From patent US20050267182A1, “Urea derivatives as FLT-3 modulators” (Ambit Biosciences Corporation, priority 2003, published 2005) come the findings set out here.

One test relates to CS0005. Nature of the test: Cell Assay: CS0005. The format is cell-based. To be noted: cell assay code CS0005.
The target in a further test is T1, FLT3 (Homo sapiens, UniProt P36888).
T1 construct: FLT3(DKIN); made in house
T1 sequence (P36888 610-943 limits assumed): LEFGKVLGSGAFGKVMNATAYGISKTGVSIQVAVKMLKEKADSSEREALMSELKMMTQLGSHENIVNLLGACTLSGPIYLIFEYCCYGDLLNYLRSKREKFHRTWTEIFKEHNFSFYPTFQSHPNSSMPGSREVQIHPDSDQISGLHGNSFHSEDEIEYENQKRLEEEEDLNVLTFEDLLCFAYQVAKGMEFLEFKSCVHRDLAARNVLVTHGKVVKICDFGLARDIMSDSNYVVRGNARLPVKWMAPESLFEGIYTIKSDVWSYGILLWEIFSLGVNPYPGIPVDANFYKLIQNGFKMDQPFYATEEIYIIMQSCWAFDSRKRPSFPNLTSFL
Description: Binding constant (Kd) measurement, phage-displayed kinase competition binding assay. Particulars: for Binding Assay: FLT3(DKIN): FLT3(DKIN) construct; for Binding Assay: FLT3(JMminus): FLT3(JMminus) construct. An excerpt:
Binding Constant (Kd) Measurements for Small-Molecule-Kinase Interactions
The term “ND” represents non-determined values.

The test system of the next test is MV4,11 cells. Description: FLT3 assay using MV4,11 cells (cellular proliferation, MTS). Format: cell-based, human. Particulars: cell assay code CS0001. An outline of the steps: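 MV4,11 AML cells, […] switch to DMEM/10% FBS overnight, plated at 10,000 cells/well and exposed to serially diluted compounds in duplicate for 3 days at 37° C., 5% CO2. Proliferation read by MTS added for 2 h.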

The next test relates to CS0002. Description: Cell Assay: CS0002. Format: cell-based. To be noted: cell assay code CS0002.

Turning to `CC(C)(C)c1cc(NC(=O)Nc2ccc(OCc3ccc(-c4ccccc4)cc3)cc2)no1` [Compound G56], in the test with CS0005, the “Cell Assay: CS0005:IC50” value is listed as “+ + + +”. In addition, the “Binding Assay: FLT3(DKIN)” value at FLT3 is “+ + + +”. For the same compound, the “Cell Assay: CS0001:IC50” value in the test on MV4,11 cells is “+ + + +”.
Turning to `CC(C)(C)c1cc(NC(=O)Nc2ccc(NC(=O)c3ccccc3)cc2)no1` [Compound N34], the “Cell Assay: CS0005:IC50” value with CS0005 was “+ + + +”. Moreover, the “Binding Assay: FLT3(DKIN)” value on FLT3 was “+ + + +”. Moreover, the “Cell Assay: CS0001:IC50” value in the test with MV4,11 cells is recorded as “+ + + +”.
On to `CC(C)(C)c1cc(NC(=O)Nc2ccc(NC(=O)c3ccc4ccccc4c3)cc2)no1` [Compound N28], for which the “Cell Assay: CS0005:IC50” value with CS0005 was “+ + + +”. In addition, the “Binding Assay: FLT3(DKIN)” value at FLT3 is on record as “+ + + +”. The “Cell Assay: CS0001:IC50” value with MV4,11 cells is on record as “+ + + +”.
As to `Cn1nc(C(C)(C)C)cc1C(=O)Nc1ccc(NC(=O)Nc2cc(C(C)(C)C)on2)cc1` [Compound N10], the “Cell Assay: CS0005:IC50” value in the test on CS0005 is given as “+ + +”. Besides, the “Binding Assay: FLT3(DKIN)” value on FLT3 is reported as “+ + + +”. Besides, the “Cell Assay: CS0001:IC50” value in the test on MV4,11 cells is on record as “+ + +”.
For `Cc1nc(-c2cccnc2)sc1C(=O)Nc1ccc(NC(=O)Nc2cc(C(C)C)on2)cc1` [Compound N48], in the test with CS0002, the “Cell Assay: CS0002:IC50” value is listed as “+ +”. For the same compound, the “Binding Assay: FLT3(DKIN)” value at FLT3 is “+ + + +”. In addition, the “Cell Assay: CS0001:IC50” value in the test on MV4,11 cells was “+ + + +”.
On to `CC(C)(C)c1cc(NC(=O)Nc2ccc(OCc3cccc(Cl)c3)cc2)no1` [Compound G11], for which, in the test with CS0005, the “Cell Assay: CS0005:IC50” value is on record as “+ + +”. In addition, the “Binding Assay: FLT3(DKIN)” value at FLT3 is “+ + + +”. Moreover, the “Cell Assay: CS0001:IC50” value in the test on MV4,11 cells was “+ + + +”.
Take `CC(C)(C)c1cc(NC(=O)Nc2ccc(OCc3ccccc3)cc2)on1` [Compound G30]: the “Cell Assay: CS0002:IC50” value in the test on CS0002 was “+ +”. The “Binding Assay: FLT3(DKIN)” value at FLT3 is given as “+ + + +”. In addition, the “Cell Assay: CS0001:IC50” value in the test with MV4,11 cells is listed as “+ + + +”.
In the case of `CC(C)(C)c1cc(NC(=O)Nc2ccc(NC(=O)c3ccc(Cl)cc3)cc2)no1` [Compound N26], the “Cell Assay: CS0005:IC50” value in the test with CS0005 is listed as “+ + +”. Besides, the “Binding Assay: FLT3(DKIN)” value on FLT3 is on record as “+ +”. In addition, the “Cell Assay: CS0001:IC50” value in the test with MV4,11 cells is listed as “+ +”.
In the test with CS0002, `CCc1ccc(C(=O)Nc2ccc(NC(=O)Nc3cc(C(C)(C)C)on3)cc2)cc1` [Compound N32] returned a half-maximal inhibitory concentration (IC50) of over 10 µM. Also, the “Binding Assay: FLT3(DKIN)” value on FLT3 is reported as “+ + + +”. In the test on MV4,11 cells, the “Cell Assay: CS0001:IC50” value was “+ + +”.
The like results for `Cn1nc(C(F)(F)F)c2cc(C(=O)Nc3ccc(NC(=O)Nc4cc(C(C)(C)C)on4)cc3)sc21` [Compound N64] were, in that order, over 10 µM, “+ + + +” and “+ + +”.
With `CC(C)(C)c1cc(NC(=O)Nc2ccc(OCc3cccc(F)c3)cc2)no1` [Compound G14], the “Cell Assay: CS0005:IC50” value in the test with CS0005 was “+ + +”. Moreover, the “Binding Assay: FLT3(DKIN)” value at FLT3 is on record as “+ + + +”. For the same compound, in the test on MV4,11 cells, the “Cell Assay: CS0001:IC50” value is reported as “+ + + +”.
Consider `CC(C)(C)c1cc(NC(=O)Nc2ccc(NC(=O)c3ccc(Oc4ccnc(C(=O)O)c4)cc3)cc2)no1` [Compound N166], for which the “Cell Assay: CS0002:IC50” value in the test on CS0002 is listed as “+ +”. Also, the “Binding Assay: FLT3(JMminus)” value on FLT3 is listed as “+ + + +”. In the test with MV4,11 cells, the “Cell Assay: CS0001:IC50” value is “+ + +”.
In the test on CS0002, `CC(C)(C)c1cc(NC(=O)Nc2ccc(N3C(=O)c4ccccc4C3=O)cc2)no1` [Compound A57] came in with a half-maximal inhibitory concentration (IC50) of over 10 µM. Also, the “Binding Assay: FLT3(JMminus)” value on FLT3 is listed as “+ + +”. For the same compound, in the test on MV4,11 cells, the “Cell Assay: CS0001:IC50” value is listed as “+ + + +”.
Regarding `CC(C)(C)c1cc(NC(=O)Nc2ccc(OCc3ccccc3)cc2)no1` [Compound G31], the “Cell Assay: CS0005:IC50” value in the test with CS0005 is “+ + +”. In addition, the “Binding Assay: FLT3(DKIN)” value on FLT3 was “+ + + +”. Moreover, the “Cell Assay: CS0001:IC50” value with MV4,11 cells was “+ + + +”.
Consider `CC(C)(C)c1cc(NC(=O)Nc2ccc(NC(=O)c3cccnc3C(=O)O)cc2)no1` [Compound N165], for which the IC50 in the test with CS0002 is over 10 µM. In addition, the “Binding Assay: FLT3(JMminus)” value on FLT3 is “+ + +”. Besides, the “Cell Assay: CS0001:IC50” value with MV4,11 cells is reported as “+ + + +”.
In the case of `Cc1ccc(-c2nc(C(=O)Nc3ccc(NC(=O)Nc4cc(C(C)(C)C)on4)cc3)cs2)cc1` [Compound N178], in the test on CS0002, the “Cell Assay: CS0002:IC50” value is “+ +”. The “Binding Assay: FLT3(JMminus)” value on FLT3 is reported as “+ + + +”. Also, the “Cell Assay: CS0001:IC50” value in the test on MV4,11 cells is on record as “+ + +”.
